Paper PMC8079061 (Pharmaceutical Biology, 2021)
Blank lines part the entries; values can stand above or below the compound they belong to.

Assays:
[1] = assay type: in vivo, Sprague–Dawley rats
[2] = dogs, oral dose of 0.3 mg/kg poziotinib; ref Kim et al. [2013]; cited from earlier work
[3] = patients, combined with paclitaxel and trastuzumab; ref Kim TY et al. [2019]; cited from earlier work
RLM = assay: Inhibition of poziotinib metabolism; assay type: in vitro ADME, rat
HLM = assay: Inhibition of poziotinib metabolism; assay type: in vitro ADME, human
recombinant human CYP3A4 = recombinant human CYP3A4 (Homo sapiens, UniProt P08684); assay: Inhibition of poziotinib metabolism; assay type: in vitro ADME; settings: CYP3A4, stated in abstract
recombinant human CYP2D6 = recombinant human CYP2D6 (Homo sapiens, UniProt P10635); assay: Inhibition of poziotinib metabolism; assay type: in vitro ADME; settings: CYP2D6, stated in abstract
[4] = healthy volunteers, coadministered with paroxetine; ref Ruiz-Garcia et al. [2014]; cited from earlier work
[5] = rat, preadministered with dacomitinib (10 mg/kg) for two weeks

Chain of recombinant human CYP3A4 (P08684 whole entry): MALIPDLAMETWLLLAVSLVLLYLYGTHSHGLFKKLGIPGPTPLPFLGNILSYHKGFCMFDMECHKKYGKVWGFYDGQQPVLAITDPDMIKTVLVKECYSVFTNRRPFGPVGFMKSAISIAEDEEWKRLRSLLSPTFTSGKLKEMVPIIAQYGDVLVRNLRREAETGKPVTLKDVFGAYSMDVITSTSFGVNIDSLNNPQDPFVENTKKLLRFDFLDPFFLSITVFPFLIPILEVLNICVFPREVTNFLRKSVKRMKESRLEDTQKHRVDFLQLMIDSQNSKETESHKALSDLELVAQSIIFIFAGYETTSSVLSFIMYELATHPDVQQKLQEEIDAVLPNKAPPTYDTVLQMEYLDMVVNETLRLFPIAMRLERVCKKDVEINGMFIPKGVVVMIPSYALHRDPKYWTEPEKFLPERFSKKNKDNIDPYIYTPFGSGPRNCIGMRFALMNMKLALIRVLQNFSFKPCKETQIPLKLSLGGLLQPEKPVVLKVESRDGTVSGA
Chain of recombinant human CYP2D6 (P10635 whole entry): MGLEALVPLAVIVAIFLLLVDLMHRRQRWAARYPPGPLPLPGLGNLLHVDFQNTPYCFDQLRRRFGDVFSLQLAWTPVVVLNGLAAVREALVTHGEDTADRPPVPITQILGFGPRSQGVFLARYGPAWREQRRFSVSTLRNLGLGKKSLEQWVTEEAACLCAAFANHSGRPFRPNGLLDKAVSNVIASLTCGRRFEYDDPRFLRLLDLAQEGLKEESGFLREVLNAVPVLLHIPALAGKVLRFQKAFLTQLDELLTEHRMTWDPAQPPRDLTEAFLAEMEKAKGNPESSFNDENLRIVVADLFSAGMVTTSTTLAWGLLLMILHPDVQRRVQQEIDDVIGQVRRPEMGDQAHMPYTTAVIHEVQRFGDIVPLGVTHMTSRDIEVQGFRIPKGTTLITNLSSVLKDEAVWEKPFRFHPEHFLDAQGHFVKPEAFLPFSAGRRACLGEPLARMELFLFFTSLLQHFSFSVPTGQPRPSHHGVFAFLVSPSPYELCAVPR

Structure (SMILES): C=CC(=O)N1CCC(Oc2cc3c(Nc4ccc(Cl)c(Cl)c4F)ncnc3cc2OC)CC1 [poziotinib, Poziotinib]
delay of Tmax of poziotinib after pre-treatment with dacomitinib ([1]; rat): ~3 h
increase of AUC(0–t) of poziotinib, test group vs control group ([1]; rat, dacomitinib pre-treatment two weeks, p < 0.01): 1.6 fold
increase of Tmax of poziotinib, test group vs control group [1, 5]: 1.3 fold
increase of t1/2 of poziotinib, test group vs control group [1, 5]: 1.6 fold
adverse effects observed ([1]; rats, poziotinib 10 mg/kg oral with or without dacomitinib): No obvious adverse effects were observed
Tmax [2]: 24 to 60 min
t1/2 [2]: 3.40 to 5.40 h
maximum tolerated dose (MTD) [3]: 8 mg/day

Ki (RLM; M1): 8.18 µM
αKi (RLM; M1): 38.81 µM
Ki (RLM; M2): 47.5 µM
αKi (RLM; M2): 38.07 µM
Ki (HLM; M1): 83.7 µM
αKi (HLM; M1): 93.73 µM
Ki (HLM; M2): 0.17 µM
mechanism of inhibition of poziotinib metabolism (recombinant human CYP3A4): mixed way
mechanism of inhibition of poziotinib metabolism (recombinant human CYP2D6): mixed way
Structure (SMILES): COc1cc2ncnc(Nc3ccc(F)c(Cl)c3)c2cc1NC(=O)/C=C/CN1CCCCC1 [dacomitinib, Dacomitinib]
mechanism of inhibition of poziotinib metabolism (RLM): mixed inhibitor
Inhibition type (RLM; M1, Lineweaver–Burk plot): Mixed
Inhibition type (RLM; M2, Lineweaver–Burk plot): Mixed
mechanism of inhibition of poziotinib metabolism (HLM): mixed inhibitor
Inhibition type (HLM; M1, Lineweaver–Burk plot): Mixed
Inhibition type (HLM; M2, Lineweaver–Burk plot): Mixed
increase of dacomitinib exposure [4]: 37%
